Test results: patent US7700621B2, “6-alkenyl-, 6-alkinyl- and 6-epoxy-epothilone derivatives, process for their production, and their use in pharmaceutical preparations” (Bayer Schering Pharma Aktiengesellschaft, priority 1999, dated 2010)

System: multi-drug-resistant NCl/ADR-carcinoma cell line
Experiment: Growth inhibition of multi-drug-resistant NCl/ADR carcinoma cell line, crystal-violet assay
Type: cell-based, human
Details: ratio of IC50 NCl/ADR to IC50 MCF-7
Text: In Vitro Activity of Epothilone Derivatives on Human Tumor Cell Lines
a) IC50 values [nM] for the growth inhibition of human MCF-7-breast and multi-drug-resistant NCl/ADR-carcinoma cell lines of epothilone derivatives with 13Z-unsaturated in the crystal-violet assay in comparison to Taxol.
b) IC50 values [nM] for the growth inhibition of human MCF-7-breast- and multi-drug-resistant NCl/ADR carcinoma cell lines of epothilone derivative with 13,14-α-epoxide, which was formed from the 13-Z-configured double bond in the crystal-violet assay in comparison to Taxol.
c) IC50 values [nM] for the growth inhibition of human MCF-7-breast- and multi-drug-resistant NCl/ADR-carcinoma cell lines of epothilone derivatives with 13,14-epoxide, which was formed from the 13-E-configured double bond, in a crystal-violet assay in comparison to Taxol.

Row | Selectivity = IC50 (NCl/ADR) : IC50 (MCF-7) | SMILES
1 | 2.8 | C=CCC[C@H]1C(=O)C(C)(C)[C@@H](O)CC(=O)O[C@H](/C(C)=C/c2ccccn2)C/C=C(/C)CCC[C@H](C)[C@@H]1O [Example 2, (4S,7R,8S,9S,13Z,16S(E))-4,8-Dihydroxy-16-(1-methyl-2-(2-pyridyl)ethenyl)-1-oxa-5,5,9,13-tetramethyl-7-(but-3-en-1-yl)-cyclohexadec-13-ene-2,6-dione]
2 | 7.0 | C#CCC[C@H]1C(=O)C(C)(C)[C@@H](O)CC(=O)O[C@H](/C(C)=C/c2ccccn2)C[C@@H]2O[C@]2(C)CCC[C@H](C)[C@@H]1O [Example 4A, (1S,3S(E),7S,10R,11S,12S,16R)-7,11-Dihydroxy-10-(but-3-in-1-yl)-3-(1-methyl-2-(2-pyridyl)ethenyl)-8,8,12,16-tetramethyl-4,17-dioxabicyclo[14.1.0]heptadecane-5,9-dione]
3 | 1.2 | C=CCC[C@H]1C(=O)C(C)(C)[C@@H](O)CC(=O)O[C@H](/C(C)=C/c2ccccn2)C[C@@H]2O[C@]2(C)CCC[C@H](C)[C@@H]1O [Example 5A, (1S,3S(E),7S,10R,11S,12S,16R)-7,11-Dihydroxy-10-(but-3-en-1-yl)-3-(1-methyl-2-(2-pyridyl)ethenyl)-8,8,12,16-tetramethyl-4,17-dioxabicyclo[14.1.0]heptadecane-5,9-dione]
4 | 2.4 | C=CC[C@H]1C(=O)C(C)(C)[C@@H](O)CC(=O)O[C@H](/C(C)=C/c2csc(C)n2)C/C=C(/C)CCC[C@H](C)[C@@H]1O [Example 9, (4S,7R,8S,9S,13Z,16S(E))-4,8-Dihydroxy-16-(1-methyl-2-(2-methylthiazol-4-yl)ethenyl)-1-oxa-5,5,9,13-tetramethyl-7-(prop-2-en-1-yl)-cyclohexadec-13-ene-2,6-dione]
5 | 3.0 | C=CC[C@H]1C(=O)C(C)(C)[C@@H](O)CC(=O)O[C@H](/C(C)=C/c2csc(C)n2)C[C@@H]2O[C@]2(C)CCC[C@H](C)[C@@H]1O [Example 10A, (1S,3S(E),7S,10R,11S,12S,16R)-7,11-Dihydroxy-10-(prop-2-en-1-yl)-3-(1-methyl-2-(2-methylthiazol-4-yl)ethenyl)-8,8,12,16-tetramethyl-4,17-dioxabicyclo[14.1.0]heptadecane-5,9-dione]
6 | 1.5 | C=CC[C@H]1C(=O)C(C)(C)[C@@H](O)CC(=O)O[C@H](/C(C)=C/c2csc(C)n2)C[C@H]2O[C@]2(C)CCC[C@H](C)[C@@H]1O [Example 12A or B]
7 | 4.8 | C#CC[C@H]1C(=O)C(C)(C)[C@@H](O)CC(=O)O[C@H](/C(F)=C/c2csc(C)n2)C[C@@H]2O[C@]2(C)CCC[C@H](C)[C@@H]1O [Example 25, (1S,3S(Z),7S,10R,11S,12S,16R)-7,11-Dihydroxy-3-(1-fluoro-2-(2-methyl-4-thiazolyl)ethenyl)-10-(prop-2-in-1-yl)-8,8,12,16-tetramethyl-4,17-dioxabicyclo[14.1.0]heptadecane-5,9-dione]
8 | 3.3 | C#CC[C@H]1C(=O)C(C)(C)[C@@H](O)CC(=O)O[C@H](/C(F)=C/c2csc(C)n2)C[C@@H]2O[C@@]2(C)CCC[C@H](C)[C@@H]1O [Example 26A or B]
9 | 1.6 | C#CC[C@H]1C(=O)C(C)(C)[C@@H](O)CC(=O)O[C@H](/C(F)=C/c2coc(C)n2)C/C=C(/C)CCC[C@H](C)[C@@H]1O [Example 27, (4S,7R,8S,9S,13Z,16S(Z))-4,8-Dihydroxy-16-(1-fluoro-2-(2-methyloxazol-4-yl)ethenyl)-7-(prop-2-in-1-yl)-1-oxa-5,5,9,13-tetramethyl-cyclohexadec-13-ene-2,6-dione]

Row | SMILES | Selectivity = IC50 (NCl/ADR) : IC50 (MCF-7)
10 | C#CCC[C@H]1C(=O)C(C)(C)[C@@H](O)CC(=O)O[C@H](/C(C)=C/c2ccccn2)C/C=C(/C)CCC[C@H](C)[C@@H]1O [Example 1, (4S,7R,8S,9S,13Z,16S(E))-4,8-Dihydroxy-16-(1-methyl-2-(2-pyridyl)ethenyl)-1-oxa-5,9,13-tetramethyl-7-(but-3-in-1-yl)-cyclohexadec-13-ene-2,6-dione] | 2.5
11 | C#CC[C@H]1C(=O)C(C)(C)[C@@H](O)CC(=O)O[C@H](/C(F)=C/c2csc(C)n2)C/C=C(/C)CCC[C@H](C)[C@@H]1O [Example 23, (4S,7R,8S,9S,13Z,16S(Z))-4,8-Dihydroxy-16-(1-fluoro-2-(2-methylthiazol-4-yl)ethenyl)-7-(prop-2-in-1-yl)-1-oxa-5,5,9,13-tetramethyl-cyclohexadec-13-ene-2,6-dione] | 5.6

Same assay, conditions: statement in words, compared with Taxol

Row | SMILES | action on the multi-drug-resistant cell line NCl/ADR
12 | CC(=O)O[C@H]1C(=O)[C@@]2(C)[C@H]([C@H](OC(=O)c3ccccc3)[C@]3(O)C[C@H](OC(=O)[C@H](O)[C@@H](NC(=O)c4ccccc4)c4ccccc4)C(C)=C1C3(C)C)[C@]1(OC(C)=O)CO[C@@H]1C[C@@H]2O [Taxol, reference compound] | not exhibited
